Test results reported in patent US20050163778A1, “Extracorporeal photopheresis in combination with anti-TNF treatment” (priority 2003, published 2005).

System: TNFα production by monocyte-derived dendritic cells
Test: Examples 2-4: TNFα production by LPS-stimulated monocyte-derived dendritic cells (ELISA of culture supernatants)
Type: cell-based, human
Conditions: 48 hours
Experimental: In examples 1-5, Monocyte-derived dendritic cells were obtained as follows: PBMC were isolated from the peripheral blood of healthy donors by fractionation over Ficoll-Hypaque gradient centrifugation. Monocytes were positively selected using the MACS CD14 isolation kit and the Automacs system (Miltenyi Biotec, Germany). CD14^+ monocytes were cultured in complete RPMI supplemented with 40 ng/ml IL-4 and GM-CSF (R&D Systems) for 5 days. Cytokine secretion was induced by stimulation of the dendritic cells with lypopolysacharides (“LPS”, Sigma). Standard ELISA procedures were used to measure TNFα and IL-12 (R&D Systems) levels in culture supernatants.
Culture supernatants were harvested from these cultures at 48 hours for measurement of TNFα production. […] While each of these treatments represent a reduction from the baseline value of over 1000 pg/ml, the levels dropped to an average of less than 50 pg/ml when the method of the invention was used.
Culture supernatants were harvested from these cultures at 48 hours for quantitation of TNFα production. […] While each of these treatments represent a reduction from the baseline value of over 2300 pg/ml, the levels dropped to about 100 pg/ml when the method of the invention was used.
Culture supernatants were harvested from these cultures at 48 hours for measurement of TNFα production. Another group of dendritic cells were similarly treated and the culture supernatants were harvested from these cultures at 48 hours for quantitation of TNFα production.

## infliximab [Remicade mAb]
Example 2, increasing quantities of LPS, Remicade mAb 200 ng/ml, ECP-treated CD15+ cells 5×10^5 cells/well, baseline over 1000 pg/ml
  TNFα in culture supernatant: about 100 pg/ml
Example 3, 0.1 mg/ml LPS, Remicade mAb 200 ng/ml, ECP-treated CD15+ cells 5×10^5 cells/well, baseline over 2300 pg/ml
  TNFα in culture supernatant: about 500 pg/ml
Example 4, 8 ng/ml Remicade mAb, alone or with ECP
  TNFα in culture supernatant: greater than 1300 pg/ml
Example 4, about 2 ng/ml Remicade mAb, alone or with ECP
  TNFα in culture supernatant: ~1000 pg/mL
